Measured values: ChEMBL document CHEMBL1149598, “Synthesis of neutral and cationic tripyridylporphyrin-D-galactose conjugates and the photoinactivation of HSV-1” (Bioorg Med Chem, 2007)

How the values were obtained:
[1] = Photostability assessed after irradiation with 50 mW/cm^2 white light for 1 min; format: ADME
[2] = Photostability assessed after irradiation with 50 mW/cm^2 white light for 3 mins; format: ADME; details: 0.05 h
[3] = Photostability assessed after irradiation with 50 mW/cm^2 white light for 5 mins; format: ADME
[4] = Photostability assessed after irradiation with 50 mW/cm^2 white light for 10 mins; format: ADME
[5] = Photostability assessed after irradiation with 50 mW/cm^2 white light for 15 mins; format: ADME; details: 0.25 h
[6] = (§1) Phototoxicity against 50 mW/cm^2 white light irradiated Vero cells assessed as viable cells pretreated at 0.01 uM after 48 hrs by MTT assay; format: cell-based; details: chlorocebus sabaeus, Vero cells; read-out: Activity
[7] = (§2) Phototoxicity against 50 mW/cm^2 white light irradiated Vero cells assessed as viable cells pretreated at 0.05 uM after 48 hrs by MTT assay; format: cell-based; details: chlorocebus sabaeus, Vero cells; read-out: Activity
[8] = (§3) Phototoxicity against 50 mW/cm^2 white light irradiated Vero cells assessed as viable cells pretreated at 0.1 uM after 48 hrs by MTT assay; format: cell-based; details: chlorocebus sabaeus, Vero cells; read-out: Activity
[9] = (§4) Phototoxicity against 50 mW/cm^2 white light irradiated Vero cells assessed as viable cells assessed as viable cells pretreated at 0.5 uM after 48 hrs by MTT assay; format: cell-based; details: chlorocebus sabaeus, Vero cells; read-out: Activity
[10] = (§5) Phototoxicity against 50 mW/cm^2 white light irradiated Vero cells assessed as viable cells pretreated at 1.0 uM after 48 hrs by MTT assay; format: cell-based; details: chlorocebus sabaeus, Vero cells; read-out: Activity
[11] = (§6) Phototoxicity against 50 mW/cm^2 white light irradiated Vero cells assessed as viable cells pretreated at 2.5 uM after 48 hrs by MTT assay; format: cell-based; details: chlorocebus sabaeus, Vero cells; read-out: Activity
Human alphaherpesvirus 1 [12] = experiment: Virucidal activity against HSV1 at 0.02 uM; format: functional; details: for inhibition at 0.02 µM: Human alphaherpesvirus 1
Human alphaherpesvirus 1 [13] = experiment: (§7) Virucidal effect against HSV1 pretreated at 0.02 uM after 5 mins of irradiation with 50 mW/cm^2 white light; format: functional; details: for inhibition at 0.02 µM: Human alphaherpesvirus 1, light or radiation study
Human alphaherpesvirus 1 [14] = experiment: as §7; format: functional; details: for inhibition at 0.02 µM: Human alphaherpesvirus 1, light or radiation study; remark: listed apart in the source
Vero [15] = experiment: as §1; format: cell-based; details: chlorocebus sabaeus, vero, 48 h, 0.01 µM
Vero [16] = experiment: as §2; format: cell-based; details: chlorocebus sabaeus, vero, 48 h, 0.05 µM
Vero [17] = experiment: as §3; format: cell-based; details: chlorocebus sabaeus, vero, 48 h, 0.1 µM
Vero [18] = experiment: as §4; format: cell-based; details: chlorocebus sabaeus, vero, 48 h, 0.5 µM
Vero [19] = experiment: as §5; format: cell-based; details: chlorocebus sabaeus, vero, 48 h, 1 µM
Vero [20] = experiment: as §6; format: cell-based; details: chlorocebus sabaeus, vero, 48 h, 2.5 µM
Human alphaherpesvirus 1 [21] = experiment: Inhibition of HSV1 infected Vero cells treated at 0.02 uM assessed virus yield under dark condition; format: functional; details: Human alphaherpesvirus 1, Vero
Human alphaherpesvirus 1 [22] = experiment: Inhibition of HSV1 infected Vero cells treated at 0.02 uM assessed virus yield after 2 hrs under dark condition; format: functional; details: Human alphaherpesvirus 1, Vero
Human alphaherpesvirus 1 [23] = experiment: Inhibition of HSV1 infected Vero cells treated at 0.02 uM assessed virus yield after 4 hrs under dark condition; format: functional; details: Human alphaherpesvirus 1, Vero
Human alphaherpesvirus 1 [24] = experiment: Inhibition of HSV1 infected Vero cells treated at 0.02 uM assessed virus yield after 16 hrs under dark condition; format: functional; details: Human alphaherpesvirus 1, Vero
Human alphaherpesvirus 1 [25] = experiment: Inhibition of HSV1 infected Vero cells treated at 0.02 uM assessed virus yield irradiated with 50 mW/ cm^2 white light for 15 mins; format: functional; details: Human alphaherpesvirus 1, Vero, light or radiation study, 0.25 h
Human alphaherpesvirus 1 [26] = experiment: Inhibition of HSV1 infected Vero cells treated at 0.02 uM assessed virus yield after 2 hrs of irradiated with 50 mW/ cm^2 white light for 15 mins; format: functional; details: Human alphaherpesvirus 1, Vero, light or radiation study
Human alphaherpesvirus 1 [27] = experiment: Inhibition of HSV1 infected Vero cells treated at 0.02 uM assessed virus yield after 4 hrs of irradiated with 50 mW/ cm^2 white light for 15 mins; format: functional; details: Human alphaherpesvirus 1, Vero, light or radiation study
Human alphaherpesvirus 1 [28] = experiment: Inhibition of HSV1 infected Vero cells treated at 0.02 uM assessed virus yield after 16 hrs of irradiated with 50 mW/ cm^2 white light for 15 mins; format: functional; details: Human alphaherpesvirus 1, Vero, light or radiation study

C[n+]1ccc(-c2c3nc(c(-c4cc[n+](C)cc4)c4ccc([nH]4)c(-c4cc[n+](C)cc4)c4nc(c(-c5ccc(C(=O)O)cc5)c5ccc2[nH]5)C=C4)C=C3)cc1.[I-].[I-].[I-]
Activity [1]: 98%
Activity [2]: 98%
Activity [3]: 98%
Activity [4]: 98%
Activity [5]: 97%
viability at 48 h, 0.01 µM [6]: 110%
viability at 48 h, 0.05 µM [7]: 98.6%
viability at 48 h, 0.1 µM [8]: 96.7%
viability at 48 h, 0.5 µM [9]: 89.2%
viability at 48 h, 1 µM [10]: 76.6%
viability at 48 h, 2.5 µM [11]: 56.3%
inhibition at 0.02 µM (Human alphaherpesvirus 1 [12]): 16.7%
inhibition at 0.02 µM (Human alphaherpesvirus 1 [13]): 50%
inhibition at 0.02 µM (Human alphaherpesvirus 1 [14]): 63.3%

CC1(C)O[C@H]2[C@@H](O1)[C@@H](COC(=O)c1ccc(-c3c4nc(c(-c5ccncc5)c5ccc([nH]5)c(-c5ccncc5)c5nc(c(-c6ccncc6)c6ccc3[nH]6)C=C5)C=C4)cc1)O[C@@H]1OC(C)(C)O[C@@H]12
Activity [1]: 98%
Activity [2]: 98%
Activity [3]: 98%
Activity [4]: 94%
Activity [5]: 93%
Activity (Vero [15]): 100.8%
Activity (Vero [16]): 96.4%
Activity (Vero [17]): 93.9%
Activity (Vero [18]): 36.4%
Activity (Vero [19]): 14.4%
Activity (Vero [20]): 6.4%
Inhibition (Human alphaherpesvirus 1 [12]): 27.7%
Inhibition (Human alphaherpesvirus 1 [13]): 36.4%
Inhibition (Human alphaherpesvirus 1 [14]): 78.9%

O=C(O)c1ccc(-c2c3nc(c(-c4ccncc4)c4ccc([nH]4)c(-c4ccncc4)c4nc(c(-c5ccncc5)c5ccc2[nH]5)C=C4)C=C3)cc1 [PORPHIRIN]
Activity [1]: 99%
Activity [2]: 99%
Activity [3]: 96%
Activity [4]: 92%
Activity [5]: 87%
viability at 48 h, 0.01 µM [6]: 105%
viability at 48 h, 0.05 µM [7]: 95.7%
viability at 48 h, 0.1 µM [8]: 90.6%
viability at 48 h, 0.5 µM [9]: 76.6%
viability at 48 h, 1 µM [10]: 39.7%
viability at 48 h, 2.5 µM [11]: 11.4%
inhibition at 0.02 µM (Human alphaherpesvirus 1 [12]): 8.9%
inhibition at 0.02 µM (Human alphaherpesvirus 1 [13]): 52.9%
inhibition at 0.02 µM (Human alphaherpesvirus 1 [14]): 90.5%

O=C(OC[C@H]1OC(O)[C@H](O)[C@@H](O)[C@H]1O)c1ccc(-c2c3nc(c(-c4ccncc4)c4ccc([nH]4)c(-c4ccncc4)c4nc(c(-c5ccncc5)c5ccc2[nH]5)C=C4)C=C3)cc1 (some centres undefined)
Activity [1]: 100%
Activity [2]: 98%
Activity [3]: 97%
Activity [4]: 88%
Activity [5]: 83%
viability at 48 h, 0.01 µM [6]: 108%
viability at 48 h, 0.05 µM [7]: 98.4%
viability at 48 h, 0.1 µM [8]: 92.3%
viability at 48 h, 0.5 µM [9]: 55.5%
viability at 48 h, 1 µM [10]: 27.2%
viability at 48 h, 2.5 µM [11]: 4.4%
inhibition at 0.02 µM (Human alphaherpesvirus 1 [12]): 28.6%
inhibition at 0.02 µM (Human alphaherpesvirus 1 [13]): 44.5%
inhibition at 0.02 µM (Human alphaherpesvirus 1 [14]): 85.6%
inhibition at 0.02 µM (Human alphaherpesvirus 1 [21]): 0%
inhibition at 0.02 µM (Human alphaherpesvirus 1 [22]): 0%
inhibition at 0.02 µM (Human alphaherpesvirus 1 [23]): 0%
inhibition at 0.02 µM (Human alphaherpesvirus 1 [24]): 45.8%
inhibition at 0.02 µM (Human alphaherpesvirus 1 [25]): 71.1%
inhibition at 0.02 µM (Human alphaherpesvirus 1 [26]): 79.2%
inhibition at 0.02 µM (Human alphaherpesvirus 1 [27]): 93.6%
inhibition at 0.02 µM (Human alphaherpesvirus 1 [28]): 95.7%
